Data published in ChEMBL document CHEMBL1134415, “Potent and selective ET-A antagonists. 2. Discovery and evaluation of potent and water soluble N-(6-(2-(aryloxy)ethoxy)-4-pyrimidinyl)sulfonamide derivatives” (J Med Chem, 2001).

Experiments:
[1] = target: T1, Endothelin-1 receptor (Sus scrofa, UniProt Q29010); assay: Ability to inhibit [125I]ET1 binding to endothelin A receptor in porcine aortic membrane; type: cell membranes
T1 sequence (Q29010 whole entry): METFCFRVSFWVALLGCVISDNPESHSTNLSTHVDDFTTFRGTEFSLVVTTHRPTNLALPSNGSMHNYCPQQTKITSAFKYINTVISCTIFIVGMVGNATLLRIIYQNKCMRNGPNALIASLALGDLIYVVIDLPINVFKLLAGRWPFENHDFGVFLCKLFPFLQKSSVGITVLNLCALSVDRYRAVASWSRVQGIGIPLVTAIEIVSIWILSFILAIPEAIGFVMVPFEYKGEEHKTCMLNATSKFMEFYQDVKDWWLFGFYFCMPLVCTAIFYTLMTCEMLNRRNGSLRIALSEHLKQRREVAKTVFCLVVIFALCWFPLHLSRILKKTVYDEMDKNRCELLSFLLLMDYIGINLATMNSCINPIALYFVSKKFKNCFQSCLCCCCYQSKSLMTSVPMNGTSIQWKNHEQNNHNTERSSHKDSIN

[2] = Ability to inhibit specific binding of [125I]- -ET-1 to rat A 10 cells which express endothelin A receptor
[3] = target: T2, Endothelin-1 receptor (Homo sapiens, UniProt P25101); assay: Ability to inhibit [125I]ET1 binding to human cloned endothelin A receptor expressed on CHO cells; type: cell-based
T2 sequence (P25101 whole entry): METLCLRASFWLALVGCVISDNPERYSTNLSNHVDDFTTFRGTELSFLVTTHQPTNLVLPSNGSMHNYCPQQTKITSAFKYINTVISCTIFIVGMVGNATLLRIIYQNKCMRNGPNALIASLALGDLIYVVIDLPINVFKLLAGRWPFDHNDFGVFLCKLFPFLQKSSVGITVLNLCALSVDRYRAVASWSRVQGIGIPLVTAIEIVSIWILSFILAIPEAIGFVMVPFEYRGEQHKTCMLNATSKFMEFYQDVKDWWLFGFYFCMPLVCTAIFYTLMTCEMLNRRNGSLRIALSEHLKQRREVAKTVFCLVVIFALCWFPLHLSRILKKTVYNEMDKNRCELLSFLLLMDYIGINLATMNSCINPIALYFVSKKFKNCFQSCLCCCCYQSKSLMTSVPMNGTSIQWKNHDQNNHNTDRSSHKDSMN

[4] = target: T3, Endothelin receptor type B (Homo sapiens, UniProt P24530); assay: Ability to inhibit [125I]-ET-1 binding to human cloned ETB receptors expressed on CHO cells; type: cell-based
T3 sequence (P24530 whole entry): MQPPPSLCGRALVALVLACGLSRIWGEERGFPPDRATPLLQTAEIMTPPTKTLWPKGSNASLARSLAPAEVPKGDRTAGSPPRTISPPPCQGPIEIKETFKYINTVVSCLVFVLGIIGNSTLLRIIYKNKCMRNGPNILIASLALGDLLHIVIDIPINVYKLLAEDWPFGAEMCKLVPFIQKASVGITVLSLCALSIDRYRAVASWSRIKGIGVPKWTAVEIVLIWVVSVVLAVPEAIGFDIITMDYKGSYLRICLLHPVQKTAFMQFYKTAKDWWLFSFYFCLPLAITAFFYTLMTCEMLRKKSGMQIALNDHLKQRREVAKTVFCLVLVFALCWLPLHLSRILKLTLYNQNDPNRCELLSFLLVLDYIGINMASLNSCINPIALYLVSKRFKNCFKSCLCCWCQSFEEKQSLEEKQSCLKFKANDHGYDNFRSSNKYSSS

[5] = target: T3, Endothelin receptor type B; assay: Ability to inhibit specific binding of [125I]- -ET-1 to human GH cells which express endothelin B receptor; type: cell-based

Row | IC50 [1] [nM] | Compound | other results
1 | > 10 | Cc1ccc(-c2c(NS(=O)(=O)c3ccc(C(C)(C)C)cc3)ncnc2OCCOc2ncc(C(=O)O)cn2)cc1 | 
2 | < 0.001 | Cc1ccc(-c2c(NS(=O)(=O)c3ccc(C(C)(C)C)cc3)ncnc2OCCOc2ncc(Br)cn2)cc1 | IC50 [2]: 0.039 nM; Ki [3]: 0.0042 nM; Ki [4]: 130 nM
3 | > 10 | CSc1cnc(OCCOc2ncnc(NS(=O)(=O)c3ccc(C(C)(C)C)cc3)c2-c2ccc(C(=O)O)cc2)nc1 | 

Second part, the molecule before the results:

Row | Compound | IC50 [1] [nM] | other results
4 | CSc1cnc(OCCOc2ncnc(NS(=O)(=O)c3ccc(C(C)(C)C)cc3)c2-c2ccc(CO)cc2)nc1 | 0.04 | 
5 | Cc1ccc(-c2c(NS(=O)(=O)c3ccc(C(C)(C)C(=O)O)cc3)ncnc2OCCOc2ncc(Br)cn2)cc1 | 1.4 | 
6 | CSc1cnc(OCCOc2ncnc(NS(=O)(=O)c3ccc(C(C)(C)C)cc3)c2-c2ccc(C)cc2)nc1 | < 0.001 | 
7 | CC(C)(C)c1ccc(S(=O)(=O)Nc2ncnc(OCCOc3ncc(Br)cn3)c2-c2ccc(CO)cc2)cc1 | 0.04 | 
8 | Cc1ccc(-c2c(NS(=O)(=O)c3ccc(C(C)(C)C)cc3)ncnc2OCCOc2ncc(CO)cn2)cc1 |  | IC50 [5]: 31 nM
